Patent US6110918A, “Mesylate trihydrate salt of 5-(2-(4-(1,2-benzisothiazol-3-yl)-1-piperazinyl)ethyl)-6-chloro-1,3-dihy dro-2(1H)-indol-2-one (=ziprasidone), its preparation and its use as dopamine D2 antagonist” (Pfizer Inc, priority 1999, dated 2000)
Structures can show the parent of a compound that is named as a salt. Where two headings read alike, the source gives them in different places.

Assays:
[1] = for SOLUBILITY IN WATER: Aqueous solubility of ziprasidone mesylate polymorphs, ambient temperature (22-25° C.), equilibration 12-13 days
Description: (§1) The relative thermodynamic stability of the three ziprasidone mesylate hydrated crystal forms was determined in a series of bridging experiments where mixtures of the crystal forms were allowed to equilibrate. For the bridging experiments, 200 mg samples were allowed to equilibrate in water (4 mL) at ambient temperature (22-25° C.). Two samples each of 90/10 (w/w) and 10/90 (w/w) mixtures of the two different identified polymorphs of ziprasidone mesylate (prism vs. dihydrate (lath), prism vs. dihydrate (needle), dihydrate (needle) vs. dihydrate (lath)) were evaluated. After equilibration (12-13 days), the solids were evaluated for polymorph changes and the supernatants were assayed by HPLC to determine solubility.

[2] = as stated by U.S. Pat. No. 5,312,925; cited from earlier work
physchem = details: water
Description: as §1

[3] = Relative thermodynamic stability of the crystal forms in water (bridging experiments); assay type: physicochemical; details: for thermodynamic stability in an aqueous medium (words): ambient conditions/temperature, among the four ziprasidone mesylate forms, methanesulfonate trihydrate
[4] = Hygroscopicity / hygroscopic stability; assay type: physicochemical

Compound: O=C1Cc2cc(CCN3CCN(c4nsc5ccccc45)CC3)c(Cl)cc2N1 [5-[2-[4-(1-benzisothiazol-3-yl)-1-piperazinyl]ethyl]-6-chloro-1,3-dihydro-2H-indol-2-one methanesulfonate dihydrate (lath crystals)]
- SOLUBILITY IN WATER ([1]; listed as dihydrate (lath)): 1.11 mg/mL

Compound: O=C1Cc2cc(CCN3CCN(c4nsc5ccccc45)CC3)c(Cl)cc2N1 [ziprasidone hydrochloride monohydrate, reference compound]
- hygroscopic stability [2]: substantially hygroscopically stable
- aqueous solubility ([1]; background statement): low aqueous solubility
- solubility in water ([1]; in water at ambient temperature, comparator salt): 80 µg/mL

Compound: CS(=O)(=O)O.O.O.O.O=C1Cc2cc(CCN3CCN(c4nsc5ccccc45)CC3)c(Cl)cc2N1 [ziprasidone mesylate trihydrate, 5-[2-[4-(1,2-benzisothiazol-3-yl)-1-piperazinyl]ethyl]-6-chloro-1,3-dihydro-2H-indol-2-one methanesulfonate trihydrate]
- solubility (physchem): 730 µg/mL
- thermodynamic stability in an aqueous medium (words) ([3]; listed as mesylate trihydrate): most thermodynamically stable
- thermodynamic stability in an aqueous medium (words) [3]: most thermodynamically stable form of the four ziprasidone mesylate forms
- thermodynamic stability relative to the dihydrate forms ([3]; bridging experiments, 200 mg in water (4 mL), 22-25° C., 12-13 days): thermodynamically favored over the dihydrate forms
- hygroscopic stability [4]: possesses hygroscopic stability
- aqueous solubility relative to ziprasidone hydrochloride monohydrate ([1]; compared with hydrochloride monohydrate): significantly greater aqueous solubility than the hydrochloride monohydrate

Compound: O=C1Cc2cc(CCN3CCN(c4nsc5ccccc45)CC3)c(Cl)cc2N1 [5-[2-[4-(1-benzisothiazol-3-yl)-1-piperazinyl]ethyl]-6-chloro-1,3-dihydro-2H-indol-2-one methanesulfonate dihydrate (needle crystals)]
- SOLUBILITY IN WATER ([1]; listed as dihydrate (needle)): 1.10 mg/mL

Compound: O=C1Cc2cc(CCN3CCN(c4nsc5ccccc45)CC3)c(Cl)cc2N1 [5-[2-[4-(1,2-benzisothiazol-3-yl)-1-piperazinyl]ethyl]-6-chloro-1,3-dihydro-2H-indol-2-one methanesulfonate anhydrous]
- hygroscopicity when exposed to air ([4]; exposed to air (humidity)): hygroscopic when exposed to air (humidity)
- SOLUBILITY IN WATER ([1]; listed as anhydrous): 1.27 mg/mL
